Source: PubChem BioAssay (NCI)
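Briefly, cells in 96-well plates were exposed to five compound concentrations for 48 h, and endpoints were estimated by linear interpolation. Abbreviation: GI50, concentration required for 50% inhibition of growth. TGI: total growth inhibition.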

What was measured:
Test in all cases: NCI anticancer screen, dose series, 48 h
[1] = test system: CCRF-CEM leukemia
[2] = test system: COLO 205 colon
[3] = test system: HCC-2998 colon
[4] = test system: HS 578T breast
[5] = test system: K-562 leukemia
[6] = test system: LOX IMVI melanoma
[7] = test system: M14 melanoma
[8] = test system: NCI-H23 lung
[9] = test system: PC-3 prostate
[10] = test system: SW-620 colon
[11] = test system: T-47D breast

Compound	TGI [1] [µM]	TGI [2] [µM]	TGI [3] [µM]	TGI [4] [µM]	TGI [5] [µM]	TGI [6] [µM]	TGI [7] [µM]	TGI [8] [µM]	TGI [9] [µM]	TGI [10] [µM]	TGI [11] [µM]	GI50 [1] [µM]	GI50 [4] [µM]	GI50 [5] [µM]	GI50 [6] [µM]	GI50 [8] [µM]
COc1cccc(C2c3cc4c(cc3OC(Nc3ccccc3)C2C)OCO4)c1OC (stereo not drawn)	27.6	19.7	> 100	61.4	> 100	> 100	> 100	> 100	> 100	> 100	> 100	–	–	–	–	–
CCOC(=O)c1c(NC(=S)Nc2ccccc2)sc2c1CCOC2	> 100	> 100	> 100	> 100	> 100	> 100	> 100	> 100	> 100	> 100	> 100	–	–	–	–	–
NS(=O)(=O)c1ccc(/C=C/c2ccc(O)cc2)cc1	> 100	35.3	40.6	> 100	> 100	> 100	> 100	60.1	97.7	> 100	71.6	4.5	28.9	24.9	19.1	16.9
COC(=O)CC1c2ccccc2N2C(=O)Cc3c([nH]c4ccccc34)C12 (stereo not drawn)	> 100	> 100	> 100	96.2	> 100	> 100	> 100	> 100	> 100	> 100	> 100	–	–	–	–	–
COC(=O)CCC(NC(=O)OC(C)(C)C)C(=O)NC(Cc1ccc(NC(=O)CCCC(C)=O)cc1)C(=O)NC(CCC(=O)OC)C(=O)OC (stereo not drawn)	> 100	> 100	> 100	> 100	> 100	> 100	> 100	> 100	> 100	> 100	> 100	–	–	–	–	–
c1ccc([I+]c2ccccc2)cc1	> 100	> 100	> 100	> 100	> 100	> 100	> 100	> 100	> 100	> 100	> 100	–	–	–	–	–
O=CN1CCN(C(=O)c2ccc(Cl)c(Cl)c2)C1=S	24.2	37.8	32.7	> 100	> 100	25.9	31.4	41	31.9	42.1	58	–	–	–	–	–
CC(C)N(C(C)C)S(=O)(=O)C[C@]12CC[C@H](CC13OCC(CS(=O)(=O)c1ccccc1)O3)C2(C)C (stereo partly drawn)	> 100	34.8	> 100	> 100	> 100	> 100	> 100	> 100	> 100	> 100	> 100	–	–	–	–	–
CCOC(=O)C(Cl)(NC(=O)OCc1ccccc1)C(F)(F)F (stereo not drawn)	> 100	> 100	> 100	> 100	> 100	> 100	> 100	> 100	> 100	> 100	> 100	–	–	–	–	–
CC1C(C#N)(C#N)C(C#N)=C(N)C1(Cl)[N+](=O)[O-] (stereo not drawn)	5.12	18.5	31.8	46.1	> 100	18.8	22.1	35.3	32.9	4.46	42.7	–	–	–	–	–
COc1ccc(NC(=S)c2ccoc2C)cc1CC(=O)OC(C)C	> 100	36.7	> 100	> 100	> 100	39.2	64.3	> 100	62.3	> 100	> 100	–	–	–	–	–
CC(Cl)CC(=O)OCC1CCCN2CCCCC12 (stereo not drawn)	> 100	> 100	> 100	> 100	> 100	> 100	> 100	> 100	> 100	> 100	> 100	–	–	–	–	–
O=C(N/N=C(/COc1ccccc1)N=Cc1cccnc1)c1ccncc1	> 100	> 100	> 100	> 100	> 100	> 100	> 100	> 100	> 100	> 100	> 100	–	–	–	–	–
CN(C)c1ccc(C=C2C(=O)NC(=S)NC2=O)c2ccccc12	> 100	> 100	> 100	71.8	> 100	77	> 100	> 100	> 100	> 100	> 100	–	–	–	–	–
CC(=O)N(C(C)=O)c1cc2c3c(c1)CCCN3CCC2	> 10	> 10	> 10	> 10	> 10	> 10	> 10	> 10	> 10	> 10	> 10	–	–	–	–	–
O=C(c1ccc(Cl)cc1)N(C(=S)OCCOc1ccccc1)c1ccccc1	42.7	37.1	35.2	> 100	> 100	36.1	32.4	36.2	56.7	41.2	56.5	–	–	–	–	–
ClCCCCCc1c2nc(c(CCCCCCl)c3ccc([nH]3)c(CCCCCCl)c3ccc([nH]3)c(CCCCCCl)c3nc1C=C3)C=C2	> 100	> 100	> 100	> 100	> 100	> 100	> 100	> 100	> 100	> 100	> 100	–	–	–	–	–
BrCC[N+]12CC[N+](CCBr)(CC1)C2	> 100	> 100	> 100	> 100	> 100	> 100	> 100	> 100	> 100	> 100	> 100	–	–	–	–	–
